ChEMBL document CHEMBL2396531, “Hybrid molecule from O2-(2,4-dinitrophenyl)diazeniumdiolate and oleanolic acid: a glutathione S-transferase π-activated nitric oxide prodrug with selective anti-human hepatocellular carcinoma activity and improved stability” (J Med Chem, 2013)
Active and inactive are the calls of the source. The rule behind the calls is not given here.

Key:
[1] = tested on: HepG2; assay: Induction of apoptosis in human HepG2 cells assessed as increase in ERK phosphorylation at 3 uM by Western blotting analysis; type: functional, cell-based; conditions: TDE = time-dependent effect
[2] = tested on: HepG2; assay: Cytotoxicity against human HepG2 cells assessed as cell viability at 3 uM after 24 hrs by MTT assay in presence of hemoglobin; type: functional, cell-based
[3] = tested on: HepG2; assay: Induction of apoptosis in human HepG2 cells at 3 uM after 24 hrs by Western blotting analysis in presence of Tiron; type: functional, cell-based
[4] = tested on: H22; assay: Antitumor activity against mouse H22 cells […] in mouse assessed as reduction in tumor growth at 153.8 umol/kg, ip after 14 days; type: functional, organism-based
[5] = tested on: HepG2; assay: Induction of apoptosis in human HepG2 cells assessed as incerase in Cyt c expression after 24 hrs by Western blotting analysis; type: functional, cell-based
[6] = tested on: HepG2; assay: Cytotoxicity against human HepG2 cells at 10 to 100 uM after 24 hrs by MTT assay; type: functional, cell-based
[7] = tested on: HepG2; assay: Induction of intracellular NO release in human HepG2 cells at 1.5 to 6 uM after 24 hrs by Griess assay in presence of etacrynic acid; type: functional, cell-based
[8] = tested on: HepG2; assay: Cytotoxicity against human HepG2 cells after 24 hrs by MTT assay; type: functional, cell-based
[9] = tested on: HepG2; assay: Induction of apoptosis in human HepG2 cells at 3 uM after 24 hrs by Western blotting analysis in presence of carboxy-PTIO; type: functional, cell-based
[10] = tested on: HepG2; assay: Induction of apoptosis in human HepG2 cells assessed as increase in p38 phosphorylation after 24 hrs by Western blotting analysis; type: functional, cell-based
[11] = tested on: HepG2; assay: Induction of intracellular NO release in human HepG2 cells after 24 hrs by DAF-FM DA staining-based flow cytometry; type: functional, cell-based
[12] = tested on: H22; assay: Antitumor activity against mouse H22 cells […] in mouse assessed as reduction in tumor growth at 38.3 umol/kg, ip after 14 days; type: functional, organism-based
[13] = tested on: HepG2; assay: Induction of apoptosis in human HepG2 cells assessed as increase in p38 phosphorylation at 3 uM by Western blotting analysis; type: functional, cell-based; conditions: TDE = time-dependent effect
[14] = tested on: HepG2; assay: Induction of intracellular NO release in human HepG2 cells at 1.5 to 6 uM after 24 hrs by Griess assay in presence of carboxy-PTIO; type: functional, cell-based
[15] = tested on: HepG2; assay: Induction of apoptosis in human HepG2 cells assessed as incerase in Caspase 3 expression at 6 uM by Western blotting analysis; type: functional, cell-based; conditions: TDE = time-dependent effect
[16] = tested on: HepG2; assay: Induction of apoptosis in human HepG2 cells assessed as incerase in Bax expression at 6 uM by Western blotting analysis; type: functional, cell-based; conditions: TDE = time-dependent effect
[17] = tested on: HepG2; assay: Cell cycle arrest in human HepG2 cells assessed as accumulation at G2/M phase after 24 hrs by flow cytometry; type: functional, cell-based
[18] = tested on: HepG2; assay: Induction of intracellular NO release in human HepG2 cells at 1.5 to 6 uM after 24 hrs by Griess assay in presence of hemoglobin; type: functional, cell-based
[19] = tested on: HepG2; assay: Induction of apoptosis in human HepG2 cells assessed as reduction in Bcl2 expression at 6 uM by Western blotting analysis; type: functional, cell-based; conditions: TDE = time-dependent effect
[20] = tested on: HepG2; assay: Induction of apoptosis in human HepG2 cells assessed as incerase in Caspase 9 expression at 6 uM by Western blotting analysis; type: functional, cell-based; conditions: TDE = time-dependent effect
[21] = tested on: HepG2; assay: Induction of apoptosis in human HepG2 cells at 3 uM after 24 hrs by Western blotting analysis in presence of EA; type: functional, cell-based
[22] = tested on: HepG2; assay: Induction of apoptosis in human HepG2 cells assessed as incerase in Caspase 9 expression after 24 hrs by Western blotting analysis; type: functional, cell-based
[23] = tested on: L02; assay: Induction of intracellular NO release in human LO2 cells after 6 hrs by Griess assay; type: functional, cell-based
[24] = tested on: HepG2; assay: Induction of apoptosis in human HepG2 cells assessed as increase in JNK phosphorylation at 3 uM by Western blotting analysis; type: functional, cell-based; conditions: TDE = time-dependent effect
[25] = tested on: HepG2; assay: Induction of apoptosis in human HepG2 cells assessed as increase in ROS generation at 1.5 to 6 uM after 24 hrs by flow cytometry; type: functional, cell-based
[26] = tested on: HepG2; assay: Induction of apoptosis in human HepG2 cells assessed as increase in ERK phosphorylation after 24 hrs by Western blotting analysis; type: functional, cell-based
[27] = tested on: HepG2; assay: Induction of intracellular NO release in human HepG2 cells at 1.5 to 6 uM after 24 hrs by DAF-FM DA staining-based flow cytometry; type: functional, cell-based
[28] = tested on: HepG2; assay: Induction of intracellular NO release in human HepG2 cells after 6 hrs by Griess assay; type: functional, cell-based
[29] = organism: Homo sapiens; assay: Ratio of Kcat to Km for human GSTalpha
[30] = tested on: HepG2; assay: Induction of apoptosis in human HepG2 cells assessed as loss of mitochondrial membrane potential after 24 hrs by JC-1 staining-based flow cytometry; type: functional, cell-based
[31] = tested on: HepG2; assay: Induction of apoptosis in human HepG2 cells assessed as incerase in Bax expression after 24 hrs by Western blotting analysis; type: functional, cell-based
[32] = tested on: HepG2; assay: Induction of apoptosis in human HepG2 cells assessed as reduction in Bcl2 expression after 24 hrs by Western blotting analysis; type: functional, cell-based
[33] = tested on: HepG2; assay: Cytotoxicity against human HepG2 cells at 5 t0 35 uM by MTT assay; type: functional, cell-based; conditions: TDE = time-dependent effect
[34] = tested on: HepG2; assay: Induction of intracellular NO release in human HepG2 cells at 30 uM after 6 hrs by Griess assay; type: functional, cell-based
[35] = tested on: HepG2; assay: Induction of apoptosis in human HepG2 cells assessed as incerase in Caspase 3 expression after 24 hrs by Western blotting analysis; type: functional, cell-based
[36] = tested on: HepG2; assay: Cell cycle arrest in human HepG2 cells assessed as decrease of cells at G0/G1 phase after 24 hrs by flow cytometry; type: functional, cell-based
[37] = tested on: HepG2; assay: Induction of apoptosis in human HepG2 cells assessed as incerase in Cyt c expression at 6 uM by Western blotting analysis; type: functional, cell-based; conditions: TDE = time-dependent effect
[38] = tested on: HepG2; assay: Induction of apoptosis in human HepG2 cells assessed as loss of mitochondrial membrane potential at 1.5 to 6 uM after 24 hrs by JC-1 staining-based flow cytometry; type: functional, cell-based
[39] = tested on: HepG2; assay: Induction of apoptosis in human HepG2 cells assessed as increase in JNK phosphorylation after 24 hrs by Western blotting analysis; type: functional, cell-based
[40] = tested on: HepG2; assay: Induction of apoptosis in human HepG2 cells assessed as ROS generation at 1.5 to 6 uM after 24 hrs by flow cytometry in presence of Tiron; type: functional, cell-based
[41] = tested on: L02; assay: Induction of intracellular NO release in human LO2 cells at 6 uM by Griess assay; type: functional, cell-based; conditions: TDE = time-dependent effect
[42] = tested on: H22; assay: Antitumor activity against mouse H22 cells […] in ip dosed mouse assessed as reduction in tumor volume after 14 days relative to vehicle-treated control; type: functional, organism-based
[43] = tested on: HepG2; assay: Induction of intracellular NO release in human HepG2 cells at 6 uM by Griess assay; type: functional, cell-based; conditions: TDE = time-dependent effect
[44] = tested on: H22; assay: Antitumor activity against mouse H22 cells […] in ip dosed mouse assessed as reduction in tumor weight after 14 days relative to vehicle-treated control; type: functional, organism-based
[45] = tested on: HepG2; assay: Induction of apoptosis in human HepG2 cells after 24 hrs by FITC-Annexin V/PI staining-based flow cytometry; type: functional, cell-based

## CN(CCO)/[N+]([O-])=N\Oc1cc(N2CCN(CC(=O)O[C@H]3CC[C@]4(C)[C@H]5CC=C6[C@@H]7CC(C)(C)CC[C@]7(C(=O)O[C@@H]7O[C@H](CO)[C@H](O)[C@H](O)[C@H]7O)CC[C@@]6(C)[C@]5(C)CC[C@H]4C3(C)C)CC2)c([N+](=O)[O-])cc1[N+](=O)[O-]
[1]
  Activity: tde
[2]
  Activity: Active
[3]
  Activity: Active
[4]
  Activity: Active
[5]
  Activity: Dose-dependent effect
[6]
  Activity: Active
[7]
  Activity: Active
[8]
  Activity: Dose-dependent effect
[9]
  Activity: Active
[10]
  Activity: Dose-dependent effect
[11]
  Activity: Dose-dependent effect
[12]
  Activity: Active
[13]
  Activity: tde
[14]
  Activity: Active
[15]
  Activity: tde
[16]
  Activity: tde
[17]
  Activity: Dose-dependent effect
[18]
  Activity: Active
[19]
  Activity: tde
[20]
  Activity: tde
[21]
  Activity: Active
[22]
  Activity: Dose-dependent effect
[23]
  Activity: Dose-dependent effect
[24]
  Activity: tde
[25]
  Activity: Active
[26]
  Activity: Dose-dependent effect
[27]
  Activity: Active
[28]
  Activity: Dose-dependent effect
[29]
  kcat/Km: 2730 M⁻¹ s⁻¹
[30]
  Activity: Dose-dependent effect
[31]
  Activity: Dose-dependent effect
[32]
  Activity: Dose-dependent effect
[33]
  Activity: tde
[34]
  Activity: Active
[35]
  Activity: Dose-dependent effect
[36]
  Activity: Dose-dependent effect
[37]
  Activity: tde
[38]
  Activity: Active
[39]
  Activity: Dose-dependent effect
[40]
  Activity: Active
[41]
  Activity: tde
[42]
  Activity: Dose-dependent effect
[43]
  Activity: tde
[44]
  Activity: Dose-dependent effect
[45]
  Activity: Dose-dependent effect
